Consider eight compounds from ChEMBL document CHEMBL1177804, “Synthesis and preliminary evaluation of neuroprotection of celastrol analogues in PC12 cells” (Bioorg Med Chem Lett, 2010).

Assay [1] has as its system PC-12. The experiment in a line: Cytoprotective activity against t-BPH-induced cell damage in rat PC12 cells assessed as cell viability at 1.6 uM. Format: functional, cell-based.
Assay [2] can be described thus: Antitumor activity against mouse SW1 cells. Format: functional, cell-based.
For a further assay, the species on record is Rattus norvegicus. The experiment in a line: Cytoprotective activity against H2O2-induced damage in rat RINm cells. Type of assay: functional, cell-based.
The test system of assay [3] is PC-12. The experiment in a line: Cytoprotective activity in rat PC12 cells assessed as protection against t-BHP-induced cell damage at 0.4 uM. Type of assay: functional.
The test system of assay [4] is PC-12. Nature of the assay: Cytoprotective activity against t-BPH-induced cell damage in rat PC12 cells assessed as cell viability at 0.8 uM. Type of assay: functional, cell-based.
Assay [5] has as its system PC-12. The experiment in a line: Cytoprotective activity against t-BPH-induced cell damage in rat PC12 cells assessed as cell viability at 0.1 uM. Type of assay: functional. To be noted: read-out: Activity.
In assay [6] the test system is PC-12. The experiment in a line: Cytoprotective activity against t-BPH-induced cell damage in rat PC12 cells assessed as cell viability. Format: functional, cell-based.
The test system of another assay is LNCaP. Nature of the assay: Antitumor activity against human LNCAP cells. Format: functional, cell-based.
Assay [7] concerns PC-12. The experiment in a line: Neuroprotective activity in t-BHP-induced damage in rat PC12 cells assessed as induction of Hsp70 expression by Western blotting. Type of assay: functional, cell-based.

Active and inactive are the calls of the source. No cut-off for these calls is given here. Where only a bound is given, the exact number is not on record here.

Consider `CC1=C(O)C(=O)C=C2C1=CC=C1[C@@]2(C)CC[C@@]2(C)[C@@H]3C[C@](C)(C(=O)N4CCN(C)CC4)CC[C@]3(C)CC[C@]12C`, for which the Activity result in the assay with PC-12 [1] is “Dose-dependent effect”.
As to `CC1=C(O)C(=O)C=C2C1=CC=C1[C@@]2(C)CC[C@@]2(C)[C@@H]3C[C@](C)(C(=O)OCc4ccccc4)CC[C@]3(C)CC[C@]12C`, the midpoint of the response in [2], the EC50, lay at 300 nM.
As for `CC1=C(OC(=O)CCCCC2CCSS2)C(=O)C=C2C1=CC=C1[C@@]2(C)CC[C@@]2(C)[C@@H]3C[C@](C)(C(=O)O)CC[C@]3(C)CC[C@]12C` (some centres undefined), the outcome in the assay filed under Rattus norvegicus was Active. In addition, the result with PC-12 [3] was inactive.
For the compound `CCCOC(=O)[C@]1(C)CC[C@]2(C)CC[C@]3(C)C4=CC=C5C(=CC(=O)C(O)=C5C)[C@]4(C)CC[C@@]3(C)[C@@H]2C1`, the outcome in the assay with PC-12 [1] was Active.
With `COC(=O)[C@]1(C)CC[C@]2(C)CC[C@]3(C)C4=CC=C5C(=CC(=O)C(O)=C5C)[C@]4(C)CC[C@@]3(C)[C@@H]2C1` [PRISTIMERIN], in assay [2], the EC50 (commonly the concentration giving half of the maximal effect) is under 100 nM.
Consider `CC1=C(O)/C(=N/O)C=C2C1=CC=C1[C@@]2(C)CC[C@@]2(C)[C@@H]3C[C@](C)(C(=O)O)CC[C@]3(C)CC[C@]12C`, for which the result with PC-12 [1] was Active.
Consider `CC1=C(O)C(=O)C=C2C1=CC=C1[C@@]2(C)CC[C@@]2(C)[C@@H]3C[C@](C)(C(=O)O)CC[C@]3(C)CC[C@]12C` [CELASTROL], for which the outcome in the assay on PC-12 [4] was inactive. Also, in the assay with PC-12 [5], the viability at 0.1 µM worked out at 65%. The IC50 (as a rule, the midpoint of a concentration-inhibition curve) worked out at 3.15 µM in the assay on PC-12 [6] and 2500 nM with LNCaP. Further, the result in the assay on PC-12 [1] was Active.
For the compound `CC1=C(OC(=O)c2nc(C)c(C)nc2C)C(=O)C=C2C1=CC=C1[C@@]2(C)CC[C@@]2(C)[C@@H]3C[C@](C)(C(=O)O)CC[C@]3(C)CC[C@]12C`, the Activity entry was “Dose-dependent effect” in the assay with PC-12 [7] and 76% with PC-12 [3].
